Activity calls are given as the source filed them. How the calls were made is not given here.
System: CCRIS mutagenicity, Ames/micronucleus/aberration tests
Assay: CCRIS mutagenicity studies
[1] = Test System: AMES SALMONELLA TYPHIMURIUM, Strain/Indicator: TA100, Metabolic Activation: NONE, Method: STANDARD PLATE
[2] = Test System: AMES SALMONELLA TYPHIMURIUM, Strain/Indicator: TA98, Metabolic Activation: NONE, Method: PREINCUBATION
[3] = Test System: AMES SALMONELLA TYPHIMURIUM, Strain/Indicator: TA100, Metabolic Activation: NONE, Method: PREINCUBATION

Q: How did the mutagenic call (Test System: AMES SALMONELLA TYPHIMURIUM, Strain/Indicator: TA98, Metabolic Activation: RAT, LIVER, S-9, PHENOBARBITAL, Method: STANDARD PLATE) turn out when `COc1cc2c(c3oc(=O)c4c(c13)CC[C@@H]4O)[C@@H]1C=CO[C@@H]1O2` was run?
A: The mutagenic call was “active; positive”.

Q: And the mutagenic call (Test System: AMES SALMONELLA TYPHIMURIUM, Strain/Indicator: TA98, Metabolic Activation: RAT, LIVER, S-9, Method: STANDARD PLATE)?
A: The mutagenic call was “active; positive”.

Q: And the mutagenic call [1]?
A: Its mutagenic call is “inactive; negative”.

Q: And the mutagenic call (Test System: AMES SALMONELLA TYPHIMURIUM, Strain/Indicator: TA100, Metabolic Activation: RAT, LIVER, S-9, AROCLOR 1254, Method: STANDARD PLATE)?
A: The mutagenic call was “active; positive”.

Q: And the mutagenic call (Test System: UDS HUMAN FIBROBLASTS, Strain/Indicator: THY INCORP (NON-S-PHASE), Metabolic Activation: MOUSE, LIVER, S-9, Method: AUTORADIOGRAPHY)?
A: Its mutagenic call is “active; positive”.

Q: And the mutagenic call (Test System: UDS HUMAN FIBROBLASTS, Strain/Indicator: THY INCORP (NON-S-PHASE), Metabolic Activation: RAT, LIVER, S-9, Method: AUTORADIOGRAPHY)?
A: The mutagenic call was “active; positive”.

Q: Which mutagenic call (Test System: AMES SALMONELLA TYPHIMURIUM, Strain/Indicator: TA98, Metabolic Activation: HUMAN, LIVER, CYTOSOL, PAPS, Method: PREINCUBATION) does the source give for `CC(O)c1ccc2ccc3cccc4ccc1c2c34` (configuration not stated) here?
A: The mutagenic call was “active; positive”.

Q: With `C=CC(O)CCCCC` (configuration not stated) as the compound, how does the mutagenic call (Test System: CHINESE HAMSTER V-79, Strain/Indicator: V-79 (HPRT)/6-THIOGUANINE, Metabolic Activation: NONE, Method: STANDARD PLATE) read?
A: The mutagenic call was “inactive; negative”.

Q: And the mutagenic call (Test System: CHINESE HAMSTER V-79, Strain/Indicator: V-79 (HPRT)/6-THIOGUANINE, Metabolic Activation: RAT LIVER S-9, Method: STANDARD PLATE)?
A: Its mutagenic call is “inactive; negative”.

Q: Which results are given for `CCOC(=O)c1cc(Cc2ccc(N)c(C(=O)OCC)c2)ccc1N`?
A: mutagenic call [2]: inactive; negative; mutagenic call (Test System: AMES SALMONELLA TYPHIMURIUM, Strain/Indicator: TA98, Metabolic Activation: RAT, LIVER, S-9, PCB, Method: PREINCUBATION): inactive; negative; mutagenic call [3]: inactive; negative

Q: What does the source list for `O=c1[nH]cc(F)c(=O)[nH]1`?
A: mutagenic call (End Point: IN VITRO MICRONUCLEUS, Test System: CHL/IU CELLS, Metabolic Activation: NONE): active; positive; mutagenic call (End Point: IN VIVO CHROMOSOMAL ABERRATIONS, Test System: BONE MARROW CELLS, Species: MOUSE, Strain/Sex: SWISS/MALE, FEMALE, Route: IP): active; positive (aberrant metaphases); mutagenic call (End Point: IN VIVO MICRONUCLEUS, Test System: BLOOD ERYTHROCYTES, Species: MOUSE, Strain/Sex: CD-1/MALE, Route: INTRAPERITONEAL INJECTION): active; positive (at highest dose); mutagenic call (End Point: IN VIVO MICRONUCLEUS, Test System: BONE MARROW POLYCHROMATIC ERYTHROCYTES, Species: MOUSE, Strain/Sex: SWISS/MALE, FEMALE, Route: IP): active; positive; mutagenic call (End Point: In vitro micronucleus, Test System: Human lymphoblastoid TK6 cells, Metabolic Activation: None): active; positive (p<0.001); mutagenic call (End Point: In vivo micronucleus, Test System: Micronucleated hepatocytes, Species: Rat, Strain/Sex: F344/Male, Route: Intraperitoneal): inactive; negative; mutagenic call (Test System: AMES SALMONELLA TYPHIMURIUM, Strain/Indicator: TA98, Metabolic Activation: HAMSTER, LIVER, S-9, AROCLOR 1254 (10%), Method: PREINCUBATION): inactive; negative; mutagenic call [2]: inactive; negative; mutagenic call (Test System: AMES SALMONELLA TYPHIMURIUM, Strain/Indicator: TA98, Metabolic Activation: NONE, Method: STANDARD PLATE): inactive; negative; mutagenic call (Test System: AMES SALMONELLA TYPHIMURIUM, Strain/Indicator: TA98, Metabolic Activation: RAT, LIVER, S-9, AROCLOR 1254 (10%), Method: PREINCUBATION): inactive; negative; mutagenic call (Test System: AMES SALMONELLA TYPHIMURIUM, Strain/Indicator: TA98, Metabolic Activation: S-9, Method: PREINCUBATION): inactive; negative; mutagenic call (Test System: AMES SALMONELLA TYPHIMURIUM, Strain/Indicator: TA98, Metabolic Activation: S-9, Method: STANDARD PLATE): inactive; negative; mutagenic call (Test System: AMES SALMONELLA TYPHIMURIUM, Strain/Indicator: TA100, Metabolic Activation: HAMSTER, LIVER, S-9, AROCLOR 1254 (10%), Method: PREINCUBATION): inactive; negative; mutagenic call [3]: inactive; negative; mutagenic call [1]: inactive; negative; mutagenic call (Test System: AMES SALMONELLA TYPHIMURIUM, Strain/Indicator: TA100, Metabolic Activation: RAT, LIVER, S-9, AROCLOR 1254 (10%), Method: PREINCUBATION): inactive; negative; mutagenic call (Test System: AMES SALMONELLA TYPHIMURIUM, Strain/Indicator: TA100, Metabolic Activation: S-9, Method: PREINCUBATION): inactive; negative; mutagenic call (Test System: AMES SALMONELLA TYPHIMURIUM, Strain/Indicator: TA100, Metabolic Activation: S-9, Method: STANDARD PLATE): inactive; negative; mutagenic call (Test System: AMES SALMONELLA TYPHIMURIUM, Strain/Indicator: TA102, Metabolic Activation: NONE, Method: STANDARD PLATE): inactive; negative; mutagenic call (Test System: AMES SALMONELLA TYPHIMURIUM, Strain/Indicator: TA1535, Metabolic Activation: HAMSTER, LIVER, S-9, AROCLOR 1254 (10%), Method: PREINCUBATION): inactive; negative; mutagenic call (Test System: AMES SALMONELLA TYPHIMURIUM, Strain/Indicator: TA1535, Metabolic Activation: NONE, Method: PREINCUBATION): inactive; negative; mutagenic call (Test System: AMES SALMONELLA TYPHIMURIUM, Strain/Indicator: TA1535, Metabolic Activation: RAT, LIVER, S-9, AROCLOR 1254 (10%), Method: PREINCUBATION): inactive; negative; mutagenic call (Test System: AMES SALMONELLA TYPHIMURIUM, Strain/Indicator: TA1537, Metabolic Activation: HAMSTER, LIVER, S-9, AROCLOR 1254 (10%), Method: PREINCUBATION): inactive; negative; mutagenic call (Test System: AMES SALMONELLA TYPHIMURIUM, Strain/Indicator: TA1537, Metabolic Activation: NONE, Method: PREINCUBATION): inactive; negative; mutagenic call (Test System: AMES SALMONELLA TYPHIMURIUM, Strain/Indicator: TA1537, Metabolic Activation: NONE, Method: STANDARD PLATE): inactive; negative; mutagenic call (Test System: AMES SALMONELLA TYPHIMURIUM, Strain/Indicator: TA1537, Metabolic Activation: RAT, LIVER, S-9, AROCLOR 1254 (10%), Method: PREINCUBATION): inactive; negative; mutagenic call (Test System: AMES SALMONELLA TYPHIMURIUM, Strain/Indicator: TA2638, Metabolic Activation: NONE, Method: STANDARD PLATE): inactive; negative; mutagenic call (Test System: E. COLI, Strain/Indicator: WP2 (HCR), Metabolic Activation: NONE, Method: STANDARD PLATE): inactive; negative; mutagenic call (Test System: E. COLI, Strain/Indicator: WP2 (HCR), Metabolic Activation: S-9, Method: STANDARD PLATE): inactive; negative; mutagenic call (Test System: E. COLI, Strain/Indicator: WP2 (PKM101), Metabolic Activation: NONE, Method: STANDARD PLATE): inactive; negative; mutagenic call (Test System: E. COLI, Strain/Indicator: WP2 UVRA (PKM101), Metabolic Activation: NONE, Method: STANDARD PLATE): inactive; negative; mutagenic call (Test System: MOUSE LYMPHOMA, Strain/Indicator: L5178Y (TK+/TK-), Metabolic Activation: NONE, Method: MICROWELL): active; positive; mutagenic call (Test System: MOUSE LYMPHOMA, Strain/Indicator: L5178Y (TK+/TK-), Metabolic Activation: S-9, Method: MICROWELL): active; positive

Q: Which results are given for `CCCCN(C[C@@H](CO)Cc1ccccc1)N=O`?
A: mutagenic call [3]: inactive; negative; mutagenic call (Test System: AMES SALMONELLA TYPHIMURIUM, Strain/Indicator: TA100, Metabolic Activation: RAT, LIVER, S-9, PCB, Method: PREINCUBATION): active; positive

From PubChem BioAssay AID1259407 (Chemical Carcinogenesis Research Information System (CCRIS), 2018)
